From US20220175954A1, “HYPOXIA-INDUCING CRYOGELS” (priority 2019, published 2022)

Columns and labels:
B16-F10 melanoma cells = assay: Cancer cell viability under chemotherapeutic drugs in blank cryogels or HICs; assay type: cell-based; conditions: for IC50: Mus musculus
Experimental: (§1) Data are representative of n=6 samples per set of conditions.
(§2) The capacity of HICs to prevent cancer cell death when exposed to chemotherapeutic drugs was analyzed. 4T1 breast cancer cells or B16-F10 melanoma cells were cultured in normoxia within blank cryogels or HICs and treated with several concentrations of doxorubicin or cisplatin (0.1-100 μM) for 24 h, 48 h, or 72 h. Both 4T1 (FIGS. 24 and 25) and B16-F10 (FIGS. 26 and 27) cells within blank cryogels were sensitive to doxorubicin treatment. […] HICs induced up to 100-fold increase in cancer cell resistance to cisplatin after 72 h compared to blank cryogels.

4T1 breast cancer cells = assay: as above; assay type: cell-based; conditions: for IC50: Mus musculus
Experimental: IC50 was calculated using a linear regression in the linear part of each curve (Y=mX+n with Y=50 and X=IC50). Data are representative of n=6 samples per set of conditions.
as §1, §2

[1] = after 72 h, stated for 4T1 and B16-F10 together

Structure (SMILES): N.N.[Cl][Pt][Cl] [cisplatin]
- increase in cancer cell resistance in HICs compared to blank cryogels (B16-F10 melanoma cells; [1]): up to 100 fold
- increase in cancer cell resistance in HICs compared to blank cryogels (4T1 breast cancer cells; [1]): up to 100 fold

Structure (SMILES): COc1cccc2c1C(=O)c1c(O)c3c(c(O)c1C2=O)C[C@@](O)(C(=O)CO)C[C@@H]3O[C@H]1C[C@H](N)[C@H](O)[C@H](C)O1 [doxorubicin]
- IC50 (B16-F10 melanoma cells; B16-F10, 24 h, B16-F10 cells in HICs, 24 h): 55.7 µM
- IC50 (B16-F10 melanoma cells; B16-F10, 24 h, B16-F10 cells within blank cryogels, 24 h): 0.91 µM
- IC50 (B16-F10 melanoma cells; B16-F10, 48 h, B16-F10 cells in HICs, 48 h): 46.2 µM
- IC50 (B16-F10 melanoma cells; B16-F10, 48 h, B16-F10 cells within blank cryogels, 48 h): 0.37 µM
- IC50 (B16-F10 melanoma cells; B16-F10, 72 h, B16-F10 cells in HICs, 72 h): 47.2 µM
- IC50 (B16-F10 melanoma cells; B16-F10, 72 h, B16-F10 cells within blank cryogels, 72 h): 0.38 µM
- IC50 (4T1 breast cancer cells; 4T1, 24 h, 4T1 cells in HICs, 24 h): 56.8 µM
- IC50 (4T1 breast cancer cells; 4T1, 24 h, 4T1 cells within blank cryogels, 24 h): 1.08 µM
- IC50 (4T1 breast cancer cells; 4T1, 48 h, 4T1 cells in HICs, 48 h): 50.7 µM
- IC50 (4T1 breast cancer cells; 4T1, 48 h, 4T1 cells within blank cryogels, 48 h): 0.55 µM
- IC50 (4T1 breast cancer cells; 4T1, 72 h, 4T1 cells in HICs, 72 h): 47.2 µM
- IC50 (4T1 breast cancer cells; 4T1, 72 h, 4T1 cells within blank cryogels, 72 h): 0.33 µM
